One test addresses T1, mTOR (Homo sapiens, UniProt P42345).
T1 construct: FLAG; made in house
Nature of the test: In Vitro mTOR Kinase Assay (Echo), Test (a)(ii). The format is biochemical. Particulars: read-out: mTOR Kinase Assay (Echo). A digest of the protocol:
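FLAG-tagged human mTOR truncation (residues 1362-2549) expressed in HEK293 cells and FLAG-purified. Compounds dispensed acoustically, reaction 2 h at room temperature, stopped with EDTA. Phosphorylation of biotinylated peptide detected by AlphaScreen with anti-p70 S6K (T389) antibody overnight; IC50 reported.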
T1 sequence (P42345 1362-2549): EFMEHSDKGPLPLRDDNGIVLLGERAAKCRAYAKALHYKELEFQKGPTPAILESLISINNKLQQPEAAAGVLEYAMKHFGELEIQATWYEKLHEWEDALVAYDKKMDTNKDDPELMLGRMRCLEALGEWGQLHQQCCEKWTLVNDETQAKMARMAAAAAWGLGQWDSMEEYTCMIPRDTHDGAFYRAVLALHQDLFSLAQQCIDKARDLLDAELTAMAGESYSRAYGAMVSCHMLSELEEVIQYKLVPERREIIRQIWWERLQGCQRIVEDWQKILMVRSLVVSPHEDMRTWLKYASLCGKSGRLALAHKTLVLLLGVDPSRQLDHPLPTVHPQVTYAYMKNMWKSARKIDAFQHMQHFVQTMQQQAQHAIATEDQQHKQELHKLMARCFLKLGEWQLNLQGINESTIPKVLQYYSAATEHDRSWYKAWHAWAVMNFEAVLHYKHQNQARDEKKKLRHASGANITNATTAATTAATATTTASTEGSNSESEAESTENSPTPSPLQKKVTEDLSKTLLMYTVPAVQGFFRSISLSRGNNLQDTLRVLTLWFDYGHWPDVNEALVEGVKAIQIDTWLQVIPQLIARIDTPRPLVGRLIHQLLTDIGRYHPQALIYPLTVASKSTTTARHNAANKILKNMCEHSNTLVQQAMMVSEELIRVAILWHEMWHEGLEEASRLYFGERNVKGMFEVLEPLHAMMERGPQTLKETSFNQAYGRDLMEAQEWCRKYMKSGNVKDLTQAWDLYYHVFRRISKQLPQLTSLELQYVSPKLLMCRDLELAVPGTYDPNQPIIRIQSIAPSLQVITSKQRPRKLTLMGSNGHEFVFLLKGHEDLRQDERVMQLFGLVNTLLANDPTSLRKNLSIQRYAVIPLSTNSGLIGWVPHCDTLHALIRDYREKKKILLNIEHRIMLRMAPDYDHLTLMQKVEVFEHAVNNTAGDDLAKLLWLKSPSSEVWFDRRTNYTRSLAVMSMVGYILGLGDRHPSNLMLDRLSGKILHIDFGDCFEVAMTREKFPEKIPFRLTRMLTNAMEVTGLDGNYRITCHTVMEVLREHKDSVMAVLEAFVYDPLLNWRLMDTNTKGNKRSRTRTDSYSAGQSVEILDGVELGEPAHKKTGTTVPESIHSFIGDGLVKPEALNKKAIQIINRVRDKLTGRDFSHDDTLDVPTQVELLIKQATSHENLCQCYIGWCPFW
As to `C[C@H]1COCCN1c1cc(C2(S(C)(=O)=O)CC2)nc(-c2ccc(NC(=O)Nc3ccc(F)c(F)c3)cc2)n1` [Example 2q, 3-(3,4-difluorophenyl)-1-[4-[4-[(3S)-3-methylmorpholin-4-yl]-6-(1-methylsulfonylcyclopropyl)pyrimidin-2-yl]phenyl]urea], the IC50 was 1 nM.

Consider `CCNC(=O)Nc1ccc(-c2nc(N3CCOC[C@@H]3C)cc(C3(S(C)(=O)=O)CCC3)n2)cc1` [Example 5a, 3-ethyl-1-[4-[4-[(3S)-3-methylmorpholin-4-yl]-6-(1-methylsulfonylcyclobutyl)pyrimidin-2-yl]phenyl]urea], for which the IC50 amounted to 0.289 nM.

The same test, now with this note: table of enzyme assay Test (a)(ii); read-out: Test (a)(ii) IC50.
On to `C[C@H]1COCCN1c1cc(C2(S(=O)(=O)c3nccs3)CC2)nc(-c2ccc(NC(=O)NCc3ncc[nH]3)cc2)n1` [Example 66b, 3-(1H-imidazol-2-ylmethyl)-1-[4-[4-[(3S)-3-methylmorpholin-4-yl]-6-[1-(1,3-thiazol-2-ylsulfonyl)cyclopropyl]pyrimidin-2-yl]phenyl]urea], for which the IC50 was 24.6 nM.

Take `C[C@H]1COCCN1c1cc(C2(S(C)(=O)=O)CC2)nc(-c2ccc(NC(=O)NCC(F)F)cc2)n1` [Example 64ab, 3-(2,2-difluoroethyl)-1-[4-[4-[(3S)-methylsulfonylcyclopropyl)pyrimi-din-2-yl]phenyl]urea]: the IC50 is 9.4 nM.

In the case of `C[C@H]1COCCN1c1cc(C2(S(=O)(=O)c3ccc(NCCO)cc3)CC2)nc(-c2cnc(NC(=O)NCCO)nc2)n1` [Example 14aa, 3-(2-hydroxyethyl)-1-[5-[4-[1-[4-(2-hydroxyethylamino)phenyl]sulf-onylcyclopropyl]-6-[(3S)-3-methylmorpholin-4-yl]pyrimidin-2-yl]pyrimidin-2-yl]urea], the IC50 was found to be 18.6 nM.

`C[C@H]1COCCN1C(=O)C1(c2cc(N3CCOCC3)nc(-c3ccc(NC(=O)NCCO)cc3)n2)CC1` [Example 34a, 3-(2-hydroxyethyl)-1-[4-[4-[1-[(3S)-3-methylmorpholine-4-carbonyl]cyclopropyl]-6-morpholin-4-ylpyrimidin-2-yl]phenyl]urea]: the IC50 is 38.7 nM.

Take `C[C@H]1COCCN1c1cc(C2(S(C)(=O)=O)CC2)nc(-c2ccc(NC(=O)Nc3ccc(F)c(F)c3)cc2)n1` [Example 2q, 3-(3,4-difluorophenyl)-1-[4-[4-[(3S)-3-methylmorpholin-4-yl]-6-(1-methylsulfonylcyclopropyl)pyrimidin-2-yl]phenyl]urea]: the IC50 turned out to be 0.379 nM.

Take `C[C@H]1COCCN1c1cc(C2(S(=O)(=O)c3ccc(NCCO)c(Cl)c3)CC2)nc(-c2ccc(NC(=O)NCCO)cc2)n1` [Example 95i, 1-[4-[4-[1-[3-chloro-4-(2-hydroxyethylamino)phenyl]sulfonylcyclopropyl]-6-[(3S)-3-methylmorpho-lin-4-yl]pyrimidin-2-yl]phenyl]-3-(2-hydroxyethyl)urea]: the IC50 stood at 4.79 nM.

Consider `Cc1csc(S(=O)(=O)C2(c3cc(N4CCOC[C@@H]4C)nc(-c4ccc(NC(=O)NCCO)cc4)n3)CCCC2)n1` [Example 36dl, 3-(2-hydroxyethyl)-1-[4-[4-[(3S)-3-methylmorpholin-4-yl]-6-[1-[(4-methyl-1,3-thiazol-2-yl)sulfonyl]cyclopentyl]pyrimidin-2-yl]phenyl]urea], for which the IC50 came out at 3.99 nM.

For the compound `C[C@H]1COCCN1c1cc(C2(S(=O)(=O)c3ccncc3)CC2)nc(-c2ccc(NC(=S)NCCO)cc2)n1` [Example 37ad, 3-(2-hydroxyethyl)-1-[4-[4-[(3S)-3-methylmorpholin-4-yl]-6-(1-pyridin-4-ylsulfonylcyclopropyl)pyrimidin-2-yl]phenyl]thiourea], the IC50 turned out to be 2.63 nM.

Regarding `Cc1nc(C)c(S(=O)(=O)C2(c3cc(N4CCOC[C@@H]4C)nc(-c4ccc(NC(=O)NCC(F)F)cc4)n3)CC2)s1` [Example 78d, 3-(2,2-difluoroethyl)-1-[4-[4-[1-[(2,4-dimethyl-1,3-thiazol-5-yl)sulfonyl]cyclopropyl]-6-[(3S)-3-methylmorpholin-4-yl]pyrimidin-2-yl]phenyl]urea], the IC50 was 17.5 nM.

In the case of `CCS(=O)(=O)C1(c2cc(N3CCOC[C@@H]3C)nc(-c3ccc(NC(=O)NCc4ncc[nH]4)cc3)n2)CCC1` [Example 87a, 1-[4-[4-(1-ethylsulfonylcyclobutyl)-6-[(3S)-3-methylmorpholin-4-yl]pyrimidin-2-yl]phenyl]-3-(1H-imidazol-2-ylmethyl)urea], the IC50 is 88.7 nM.
